According to ChEMBL document CHEMBL1128624, “Syntheses of -, -monoglycosylceramides and four diastereomers of an -galactosylceramide” (Bioorg Med Chem Lett, 1995):
Activity calls are given as the source filed them. No cut-off for these calls is given here.

Organism: Mus musculus
Assay: Antitumor activity against B16-melanoma bearing mice; active
Format: functional, organism-based
`CCCCCCCCCCCCCCCCCCCCCC[C@@H](O)C(=O)N[C@@H](CO[C@H]1O[C@@H](CO)[C@H](O)[C@H](O)[C@@H]1O)[C@H](O)[C@H](O)CCCCCCCCCCCC(C)CC` (some centres undefined) was tested, and the Activity was “Active”. `CCCCCCCCCCCCCCCCCCCCCC[C@@H](O)C(=O)N[C@@H](CO[C@H]1O[C@@H](CO)[C@H](O)[C@H](O)[C@@H]1O)[C@H](O)[C@H](O)CCCCCCCCCCCC(C)C` was tested, and the Activity was “Active”. `CCCCCCCCCCCCCCCCCCCCCC[C@@H](O)C(=O)N[C@@H](CO[C@H]1O[C@@H](CO)[C@H](O)[C@H](O)[C@@H]1O)[C@H](O)[C@H](O)CCCCCCCCCCCC` was tested, and the Activity was “Active”. `CCCCCCCCCCCCCCCCCCCCCCC[C@@H](O)C(=O)N[C@@H](CO[C@H]1O[C@@H](CO)[C@H](O)[C@H](O)[C@@H]1O)[C@H](O)[C@H](O)CCCCCCCCCCCC(C)CC` (some centres undefined) was tested, and the Activity was “Active”.
